Patent US9763961B2, “Compositions that modulate the activity of estrogen receptors and estrogen-related receptors and methods for use” (CITY OF HOPE, priority 2005, dated 2017)
“Also recorded” adds a separate entry of the source.

What was measured:
Type in all cases: cell-based
[1] = molecular target: T1, ERα (Homo sapiens, UniProt P03372); assay: Transient transfection luciferase assay with pSG5-ERa and ERE-SV40 reporter in HeLa cells, with 100 pM estradiol; conditions: for IC50: HeLa cells, in the presence of 100 pM of estradiol, 24 h; for Antagonistic properties on ERa (in words): transient transfection
T1 construct: expressed in transfected cells; host or cells: HeLa
T1 sequence (P03372 1-595): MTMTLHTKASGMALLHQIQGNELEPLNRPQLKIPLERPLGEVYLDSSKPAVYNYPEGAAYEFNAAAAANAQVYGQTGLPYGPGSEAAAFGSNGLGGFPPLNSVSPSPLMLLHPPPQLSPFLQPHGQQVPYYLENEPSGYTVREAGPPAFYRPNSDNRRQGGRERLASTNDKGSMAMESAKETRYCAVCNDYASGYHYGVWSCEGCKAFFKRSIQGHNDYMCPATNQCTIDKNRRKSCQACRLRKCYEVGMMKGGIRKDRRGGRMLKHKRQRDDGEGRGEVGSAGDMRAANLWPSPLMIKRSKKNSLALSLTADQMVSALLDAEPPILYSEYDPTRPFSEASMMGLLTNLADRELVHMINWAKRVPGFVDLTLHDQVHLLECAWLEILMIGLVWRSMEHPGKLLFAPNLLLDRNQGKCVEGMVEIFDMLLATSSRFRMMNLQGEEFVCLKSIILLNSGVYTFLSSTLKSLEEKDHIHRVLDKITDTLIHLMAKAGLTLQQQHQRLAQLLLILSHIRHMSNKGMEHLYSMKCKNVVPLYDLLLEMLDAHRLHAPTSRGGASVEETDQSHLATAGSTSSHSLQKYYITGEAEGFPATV

[2] = molecular target: T2, ERβ (Homo sapiens, UniProt Q92731); assay: Transient transfection luciferase assay with pCI-ERb and ERE-SV40 reporter in HeLa cells, with 100 pM estradiol; conditions: for IC50: HeLa cells, in the presence of 100 pM of estradiol, 24 h; for Antagonistic properties on ERb (in words): transient transfection
T2 construct: expressed in transfected cells; host or cells: HeLa
T2 sequence (Q92731 whole entry, species assumed): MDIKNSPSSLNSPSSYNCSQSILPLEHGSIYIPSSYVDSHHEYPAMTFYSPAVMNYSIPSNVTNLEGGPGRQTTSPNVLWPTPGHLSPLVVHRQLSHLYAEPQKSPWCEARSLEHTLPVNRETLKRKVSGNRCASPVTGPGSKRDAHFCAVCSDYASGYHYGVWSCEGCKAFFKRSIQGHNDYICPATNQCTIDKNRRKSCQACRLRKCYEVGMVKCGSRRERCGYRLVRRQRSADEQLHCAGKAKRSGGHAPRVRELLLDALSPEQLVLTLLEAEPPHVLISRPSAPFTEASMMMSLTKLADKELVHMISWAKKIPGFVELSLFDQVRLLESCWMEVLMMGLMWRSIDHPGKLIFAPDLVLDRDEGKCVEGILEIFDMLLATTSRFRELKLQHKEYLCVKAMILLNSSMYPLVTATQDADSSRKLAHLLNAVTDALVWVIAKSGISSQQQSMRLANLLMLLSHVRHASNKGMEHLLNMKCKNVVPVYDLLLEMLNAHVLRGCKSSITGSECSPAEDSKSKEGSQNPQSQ

[3] = molecular target: T3, ERRβ (Homo sapiens, UniProt O95718); assay: Transient transfection luciferase assay with pSG5-ERRb and SF1-SV40 reporter in HeLa cells; conditions: for IC50: HeLa cells, 24 h, average of at least two experiments; for Antagonistic properties on ERRb (in words): transient transfection
T3 construct: expressed in transfected cells; host or cells: HeLa
T3 sequence (O95718 1-433): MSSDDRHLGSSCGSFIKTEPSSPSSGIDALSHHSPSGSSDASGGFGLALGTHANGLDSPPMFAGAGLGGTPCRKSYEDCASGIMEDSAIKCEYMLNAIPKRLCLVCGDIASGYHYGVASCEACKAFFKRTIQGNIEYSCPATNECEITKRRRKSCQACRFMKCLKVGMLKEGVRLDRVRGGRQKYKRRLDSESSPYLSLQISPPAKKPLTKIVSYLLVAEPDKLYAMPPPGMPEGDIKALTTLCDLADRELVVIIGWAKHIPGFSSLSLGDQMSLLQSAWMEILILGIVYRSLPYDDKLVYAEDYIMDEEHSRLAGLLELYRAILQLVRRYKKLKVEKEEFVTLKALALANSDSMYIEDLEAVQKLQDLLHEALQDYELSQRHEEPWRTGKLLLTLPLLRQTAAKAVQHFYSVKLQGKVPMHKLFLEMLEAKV

[4] = molecular target: T4, human ERRα-1 (Homo sapiens, UniProt P11474); assay: Transient transfection luciferase assay, full length human ERRα with SF1-SV40-Luc reporter in HeLa cells; conditions: for Antagonism of constitutive activity of ERRα (in words) / IC50: HeLa cells; for Antagonism of constitutive activity of ERRα (in words): SF1 binding site reporter, FIG. 1; for IC50: pSG5-ERRα, 24 h, mean ± SD
T4 construct: expressed in transfected cells; host or cells: HeLa
T4 sequence (P11474 1-423): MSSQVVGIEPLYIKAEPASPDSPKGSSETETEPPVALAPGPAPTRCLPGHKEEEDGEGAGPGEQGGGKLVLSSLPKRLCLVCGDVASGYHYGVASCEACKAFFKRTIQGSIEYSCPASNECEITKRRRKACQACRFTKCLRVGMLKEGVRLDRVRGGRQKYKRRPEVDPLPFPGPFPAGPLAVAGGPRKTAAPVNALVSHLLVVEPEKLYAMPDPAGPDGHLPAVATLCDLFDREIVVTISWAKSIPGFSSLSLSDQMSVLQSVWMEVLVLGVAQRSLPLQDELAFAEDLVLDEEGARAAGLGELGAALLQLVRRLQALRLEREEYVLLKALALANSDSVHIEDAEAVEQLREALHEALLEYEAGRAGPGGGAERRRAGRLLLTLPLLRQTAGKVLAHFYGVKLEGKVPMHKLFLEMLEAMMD
Experimental: HeLa cells were cultured in MEM Earle's salts medium supplemented with 5% charcoal/dextran-treated fetal bovine serum. Cells were then divided and cultured in 6-well plates until 80% confluence was achieved. The cells were next transfected with 4 μg Lipofectin. An equal amount of total DNA was used in all transfections by including appropriate amounts of the empty vector, pSG5, in addition to specific amounts of pSG5-ERRα and luciferase reporter plasmids (ERRE (ERRα recognizes an ERE half site)-containing reporter and aromatase promoter I.3-containing reporter). Following an overnight incubation, the medium containing Lipofectin and DNA was removed, and the cells cultured in a growth medium containing 5% charcoal/dextran-treated fetal bovine serum with or without ligands. After a 24-hour incubation, the cells was harvested from the plates by scraping, and the luciferase activities in the cell lysates (with the same amounts of protein) was measured according to the manufacturer's instructions (Promega). All experiments were performed in triplicate.
(§1) To evaluate the functional significance of the interaction of chalcones with ERRα, we incubated these compounds with HeLa cells which were transiently transfected with human ERRα expression plasmid and a luciferase reporter plasmid containing SF1 binding site. […] In order to confirm the results above, HeLa cells were transiently transfected with GAL4-human ERRα LBD fusion expression plasmid and a luciferase reporter plasmid containing GAL4 binding site. […] Most of the compounds, however, have similar IC50 value, and have a similar potency.
(§2) Referring to FIG. 1, HeLa cells were cotransfected with pSG5-ERRα (0.5 μg) and luciferase reporter plasmid containing SF1 binding site and SV40 promoter (0.25 μg). The transfected cells were incubated with Compound No. 1-9 for 24 h. After cells were washed with 1× PBS, luciferase activity was measured. Values represent the mean±SD.

[5] = molecular target: T5, GAL4-human ERRα LBD fusion (Homo sapiens, UniProt P11474); assay: Transient transfection luciferase assay, GAL4-human ERRα LBD fusion with Gal4-TK-Luc reporter in HeLa cells; conditions: pM-ERRα LBD, 24 h, mean ± SD
T5 construct: GAL4-human ERRα LBD fusion expression plasmid; expressed in transfected cells; host or cells: HeLa
T5 sequence (P11474 193-421 limits assumed): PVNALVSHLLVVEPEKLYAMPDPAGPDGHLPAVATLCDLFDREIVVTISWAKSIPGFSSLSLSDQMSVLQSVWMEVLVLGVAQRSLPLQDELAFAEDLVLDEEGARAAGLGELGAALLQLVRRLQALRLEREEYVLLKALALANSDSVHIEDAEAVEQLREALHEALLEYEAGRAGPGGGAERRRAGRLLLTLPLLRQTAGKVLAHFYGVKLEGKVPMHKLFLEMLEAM
Experimental: Referring to FIG. 2, we have also prepared GAL4-ERRα expression plasmid and luciferase reporter plasmids with GAL4 response element. This is a more sensitive assay method than that using pSG5-ERRα and ERE luciferase reporter plasmids.
as §1
as §2, with “2,” for “1,”, “pM-ERRα LBD” for “pSG5-ERRα”, “GAL4” for “SF1”, “TK” for “SV40”

SMILES	IC50 [1]	Antagonistic properties on ERa (in words) [1]	IC50 [2]	Antagonistic properties on ERb (in words) [2]	IC50 [3]	Antagonistic properties on ERRb (in words) [3]	Rank of potency as antagonist of ERRα among the chalcones [4]	Antagonism of constitutive activity of ERRα (in words) [4]	IC50 [4]	IC50 [5]
COc1cccc(/C=C/C(=O)c2ccc(O)cc2O)c1OC [Compound No. 1-9, 2′,4′-Dihydroxy-2,3-dimethoxychalcone]	3.3 µM	showed antagonistic properties	4.6 µM	showed antagonistic properties	3.5 µM	showed antagonistic properties	most potent antagonist among these chalcones; also recorded: more potent antagonist of ERRα among these seven chalcones	antagonists of ERRα	5.7 ± 1.8 µM	1.1e+06 ± 700000 pM
O=C(/C=C/c1ccccc1O)c1ccc(O)cc1O [Compound No. 7-5, 2,2′,4′-Trihydroxychalcone]	3.7 µM	showed antagonistic properties	7.4 µM	showed antagonistic properties	6.7 µM	showed antagonistic properties	more potent antagonist of ERRα among these seven chalcones	antagonists of ERRα	6.2 ± 1 µM	900000 ± 400000 pM
